Test results taken from the supplement of paper PMC10307832.

How the values were obtained:
Assay in all cases: relative viability (nuclei count vs DMSO), 5 days (fraction); higher = more cells survive
NCI-H3122 = system: NCI-H3122
Procedure, shortened: (§1)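 Each reported value is a median over duplicate plates. It expresses relative viability: treated-well nuclei count divided by vehicle-well nuclei count. Lung cancer cell lines in 1536-well plates were dosed by pin tool a day after seeding, alone with one drug or with a fixed anchor-drug dose plus five library-drug doses (not always all listed) in √10 steps, and nuclei were counted after 5 days.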

NCI-H727 = system: NCI-H727
Procedure, shortened: as §1

NCI-H1793 = system: NCI-H1793
Procedure, shortened: as §1

RERF-LC-KJ = system: RERF-LC-KJ
Procedure, shortened: as §1

LXF-289 = system: LXF-289
Procedure, shortened: as §1

NCI-H2405 = system: NCI-H2405
Procedure, shortened: as §1

HCC-827 = system: HCC-827
Procedure, shortened: as §1

LCLC-97TM1 = system: LCLC-97TM1
Procedure, shortened: as §1

NCI-H1437 = system: NCI-H1437
Procedure, shortened: as §1

BEN = system: BEN
Procedure, shortened: as §1

NCI-H322M = system: NCI-H322M
Procedure, shortened: as §1

NCI-H1792 = system: NCI-H1792
Procedure, shortened: as §1

NCI-H2087 = system: NCI-H2087
Procedure, shortened: as §1

NCI-H1944 = system: NCI-H1944
Procedure, shortened: as §1

NCI-H2228 = system: NCI-H2228
Procedure, shortened: as §1

SK-LU-1 = system: SK-LU-1
Procedure, shortened: as §1

NCI-H1395 = system: NCI-H1395
Procedure, shortened: as §1

CAL-12T = system: CAL-12T
Procedure, shortened: as §1

NCI-H1650 = system: NCI-H1650
Procedure, shortened: as §1

NCI-H647 = system: NCI-H647
Procedure, shortened: as §1

201T = system: 201T
Procedure, shortened: as §1

Structure (SMILES): O=c1cc(N2CCOCC2)oc2c(-c3cccc4c3sc3ccccc34)cccc12 + CC1(C)CCC(c2ccc(Cl)cc2)=C(CN2CCN(c3ccc(C(=O)NS(=O)(=O)c4ccc(N[C@H](CCN5CCOCC5)CSc5ccccc5)c(S(=O)(=O)C(F)(F)F)c4)cc3)CC2)C1 [Navitoclax] (partner 0.5 µM)
- relative viability (NCI-H3122; first compound 0.01 µM): 1.02
- relative viability (NCI-H3122; first compound 0.03162 µM): 0.981
- relative viability (NCI-H3122; first compound 0.1 µM): 1.02
- relative viability (NCI-H3122; first compound 0.3162 µM): 0.966
- relative viability (NCI-H3122; first compound 1 µM): 0.985
- relative viability (NCI-H727; first compound 0.01 µM): 0.47
- relative viability (NCI-H727; first compound 0.03162 µM): 0.512
- relative viability (NCI-H727; first compound 0.1 µM): 0.39
- relative viability (NCI-H727; first compound 0.3162 µM): 0.398
- relative viability (NCI-H727; first compound 1 µM): 0.438
- relative viability (NCI-H1793; first compound 0.01 µM): 0.471
- relative viability (NCI-H1793; first compound 0.03162 µM): 0.468
- relative viability (NCI-H1793; first compound 0.1 µM): 0.54
- relative viability (NCI-H1793; first compound 0.3162 µM): 0.367
- relative viability (NCI-H1793; first compound 1 µM): 0.382
- relative viability (RERF-LC-KJ; first compound 0.01 µM): 0.926
- relative viability (RERF-LC-KJ; first compound 0.03162 µM): 1.2
- relative viability (RERF-LC-KJ; first compound 0.1 µM): 0.98
- relative viability (RERF-LC-KJ; first compound 0.3162 µM): 0.85
- relative viability (RERF-LC-KJ; first compound 1 µM): 0.974
- relative viability (LXF-289; first compound 0.01 µM): 0.924
- relative viability (LXF-289; first compound 0.03162 µM): 0.937
- relative viability (LXF-289; first compound 0.1 µM): 0.938
- relative viability (LXF-289; first compound 0.3162 µM): 0.865
- relative viability (LXF-289; first compound 1 µM): 0.916
- relative viability (NCI-H2405; first compound 0.01 µM): 0.837
- relative viability (NCI-H2405; first compound 0.03162 µM): 1.01
- relative viability (NCI-H2405; first compound 0.1 µM): 0.838
- relative viability (NCI-H2405; first compound 0.3162 µM): 0.811
- relative viability (NCI-H2405; first compound 1 µM): 0.95
- relative viability (HCC-827; first compound 0.01 µM): 1.02
- relative viability (HCC-827; first compound 0.03162 µM): 0.996
- relative viability (HCC-827; first compound 0.1 µM): 1.01
- relative viability (HCC-827; first compound 0.3162 µM): 1.07
- relative viability (HCC-827; first compound 1 µM): 1.02
- relative viability (LCLC-97TM1; first compound 0.01 µM): 0.391
- relative viability (LCLC-97TM1; first compound 0.03162 µM): 0.568
- relative viability (LCLC-97TM1; first compound 0.3162 µM): 0.362
- relative viability (LCLC-97TM1; first compound 1 µM): 0.346
- relative viability (NCI-H1437; first compound 0.01 µM): 1.05
- relative viability (NCI-H1437; first compound 0.03162 µM): 1.13
- relative viability (NCI-H1437; first compound 0.1 µM): 1.16
- relative viability (NCI-H1437; first compound 0.3162 µM): 1.05
- relative viability (NCI-H1437; first compound 1 µM): 1.05
- relative viability (BEN; first compound 0.01 µM): 0.155
- relative viability (BEN; first compound 0.03162 µM): 0.0681
- relative viability (BEN; first compound 0.1 µM): 0.0673
- relative viability (BEN; first compound 0.3162 µM): 0.0807
- relative viability (BEN; first compound 1 µM): 0.0563
- relative viability (NCI-H322M; first compound 0.01 µM): 1.34
- relative viability (NCI-H322M; first compound 0.03162 µM): 1.17
- relative viability (NCI-H322M; first compound 0.3162 µM): 1.19
- relative viability (NCI-H322M; first compound 1 µM): 1.12
- relative viability (NCI-H1792; first compound 0.01 µM): 0.604
- relative viability (NCI-H1792; first compound 0.03162 µM): 0.595
- relative viability (NCI-H1792; first compound 0.1 µM): 0.368
- relative viability (NCI-H1792; first compound 0.3162 µM): 0.564
- relative viability (NCI-H1792; first compound 1 µM): 0.556
- relative viability (NCI-H2087; first compound 0.01 µM): 0.929
- relative viability (NCI-H2087; first compound 0.03162 µM): 0.904
- relative viability (NCI-H2087; first compound 0.1 µM): 1.01
- relative viability (NCI-H2087; first compound 0.3162 µM): 0.919
- relative viability (NCI-H2087; first compound 1 µM): 0.857
- relative viability (NCI-H1944; first compound 0.01 µM): 1.03
- relative viability (NCI-H1944; first compound 0.03162 µM): 1.1
- relative viability (NCI-H1944; first compound 0.1 µM): 1.07
- relative viability (NCI-H1944; first compound 0.3162 µM): 1.09
- relative viability (NCI-H1944; first compound 1 µM): 1.05
- relative viability (NCI-H2228; first compound 0.03162 µM): 0.895
- relative viability (NCI-H2228; first compound 0.1 µM): 1.16
- relative viability (NCI-H2228; first compound 0.3162 µM): 0.897
- relative viability (NCI-H2228; first compound 1 µM): 1.19
- relative viability (SK-LU-1; first compound 0.03162 µM): 0.954
- relative viability (SK-LU-1; first compound 0.1 µM): 1.1
- relative viability (SK-LU-1; first compound 0.3162 µM): 1.18
- relative viability (SK-LU-1; first compound 1 µM): 0.77
- relative viability (NCI-H1395; first compound 0.01 µM): 1.08
- relative viability (NCI-H1395; first compound 0.03162 µM): 1.16
- relative viability (NCI-H1395; first compound 0.1 µM): 1.38
- relative viability (NCI-H1395; first compound 0.3162 µM): 1.17
- relative viability (NCI-H1395; first compound 1 µM): 1.23
- relative viability (CAL-12T; first compound 0.01 µM): 1.47
- relative viability (CAL-12T; first compound 0.03162 µM): 1.17
- relative viability (CAL-12T; first compound 0.1 µM): 1.36
- relative viability (CAL-12T; first compound 0.3162 µM): 1.45
- relative viability (CAL-12T; first compound 1 µM): 1.16
- relative viability (NCI-H1650; first compound 0.03162 µM): 1.07
- relative viability (NCI-H1650; first compound 0.1 µM): 1.07
- relative viability (NCI-H1650; first compound 0.3162 µM): 1.47
- relative viability (NCI-H1650; first compound 1 µM): 1.07
- relative viability (NCI-H647; first compound 0.01 µM): 0.985
- relative viability (NCI-H647; first compound 0.3162 µM): 1.06
- relative viability (NCI-H647; first compound 1 µM): 1.1
- relative viability (201T; first compound 0.01 µM): 1.2
- relative viability (201T; first compound 0.03162 µM): 1.17
- relative viability (201T; first compound 0.1 µM): 1.19
- relative viability (201T; first compound 0.3162 µM): 1.19
- relative viability (201T; first compound 1 µM): 1.18
